Converted amounts (≈) assume the structure as drawn.
Experiments:
[1] = tested on: Pseudomonas aeruginosa; assay: Antibacterial activity, serial tube dilution method; type: cell-based; details: for MIC: Pseudomonas aeruginosa, Gram-negative, serial tube dilution, read-out: MIC P aeruginosa
Method: (§1) The target chalcones (17–31) and pyrazolines (32–46) were tested for their antimicrobial activities by serial tube dilution method against two types of bacterial and fungal strains (Table 1 and Table 2). The bacterial strains used for the testing, including Gram-positive Staphylococcus aureus and Gram-negative Pseudomonas aeruginosa, whereas the fungal strains employed were Aspergillus niger and Candida tropicalis.
(§2) The antibacterial and antifungal activity of the novel chalcones (17 to 31) and dihydropyrazoles (32 to 46) against the selected bacterial and fungal strains was assessed by following the procedure described in our previous paper.

[2] = tested on: Staphylococcus aureus; assay: as above; type: cell-based; details: for MIC: Staphylococcus aureus, Gram-positive, serial tube dilution, read-out: MIC S aureus
Method: as §1, §2

[3] = tested on: Aspergillus niger; assay: Antifungal activity, serial tube dilution method; type: cell-based
Method: as §1, §2

[4] = tested on: Candida tropicalis; assay: Antifungal activity, serial tube dilution method; type: cell-based; details: read-out: MIC C tropicalis
Method: as §1, §2

[5] = DPPH free radical scavenging assay; details: antioxidant activity; average of three independent experiments
Method: The antioxidant activity of all 30 compounds was assessed using 1,1-diphenyl-2-picrylhydrazine (DPPH) free radical scavenging assay and the results are the average of three independent experiments (Table 3). Gallic acid was employed as a positive control. […] In the disubstituted series (20–25), compound 25 with substitutions at position 3 and 5 on the phenyl ring gave the highest activity of 9 µg/mL.
The purpose of this study was to evaluate the antioxidant activity of chalcones and pyrazolines using the DPPH free radical assay. The percentage of antioxidant activity (AA%) of all the compounds was assessed by the DPPH free radical assay. The measurement of the DPPH radical scavenging activity was performed according to methodology described by Brand-Williams et al. The samples were reacted with the stable DPPH radical in an ethanol solution. A 0.1 mM solution of DPPH was prepared by dissolving DPPH in methanol. Gallic acid was taken as a reference standard and different concentrations of test samples (5–100 µg/mL) and standard (1.0, 2.5, and 5.0 µg/mL) were prepared using methanol. One milliliter of 0.1 mM DPPH solution was added to 3 mL of all concentrations of test samples and standard separately. These mixtures were kept in dark for about 30 min and the absorbance was measured at 517 nm. The capability to scavenge the DPPH radical was calculated using the formula:(1) DPPH scavanged (%)= Absorbance of control−Absorbance of sample/Absorbance of control∗100 when DPPH reacted with an antioxidant compound and was reduced, the change in color (from deep violet to light yellow) was read [Absorbance (Abs)] at 517 nm after […] of reaction using a UV-VIS spectrophotometer.

[6] = tested on: prostate cancer cell line, DU-145; assay: MTT assay anticancer activity; type: cell-based; details: for IC50: Homo sapiens, MTT assay, mean ± SD (n = 3); for Anticancer potency MIC: given as MIC in text/Figure 3
Method: All the 30 compounds were evaluated for their anticancer potency against the prostate cancer cell line, DU-145, employing colorimetric tetrazolium dye (MTT) assay. […] Among the disubstituted series 20–25, substitution at position 3 and 4 (compound 24) produced the best activity but was lower than the standard. […] Similar phenomena can be seen among the dihydropyrazole series.
The in vitro anticancer activity of chalcones (17 to 31) and dihydropyrazoles (32 to 46) was evaluated by the Mosmann’s MTT assay as described previously.

[7] = tested on: Human Normal Cells (L02); assay: MTT assay toxicity on normal cells; type: cell-based
[8] = tested on: Staphylococcus aureus and Pseudomonas aeruginosa; assay: Antibacterial activity (strain not named); type: cell-based; details: for MIC: text/figure value, strain not named
Method: as §1, §2

[9] = tested on: Aspergillus niger and Candida tropicalis; assay: Antifungal activity (strain not named); type: cell-based; details: text/figure value, strain not named
Method: as §1, §2

| MIC [1] [µg/mL] | MIC [2] [µg/mL] | MIC [3] [µg/mL] | MIC [4] [µg/mL] | DPPH assay IC50 [5] [µg/mL] | IC50 [6] [µg/mL] | MIC [8] [µg/mL] | MIC [9] [µg/mL] | Anticancer potency MIC [6] [µg/mL] | Structure (SMILES) | IC50 [7] [µg/mL] | fold improvement of antibacterial activity vs. 41 ([8]; 45 (MIC 8) vs. 41 (MIC 64)) [fold] | fold improvement in the antibacterial activity compared to compound 38 ([1]; second of two values, P aeruginosa inferred from Table 2) [fold] | fold improvement in the antibacterial activity compared to compound 38 ([2]; first of two values, S aureus inferred from Table 2) [fold] |
| --- | --- | --- | --- | --- | --- | --- | --- | --- | --- | --- | --- | --- | --- |
| 32 (≈ 123 µM) | 64 (≈ 247 µM) | 128 (≈ 494 µM) | 64 (≈ 247 µM) | 29 ± 1 | 6 ± 2 (≈ 23.1 µM) |  |  |  | COc1ccc(/C=C/C(=O)c2ccno2)cc1OC [Compound 24] | > 40 |  |  |  |
| 256 (≈ 739 µM) | 64 (≈ 185 µM) | 16 (≈ 46.2 µM) | 16 (≈ 46.2 µM) | 12 ± 2 | 5 ± 2 (≈ 14.4 µM) |  |  |  | COc1cc(C2CC(c3ccno3)=NN2C(N)=O)cc(OC)c1OC (stereo not drawn) [Compound 44] | > 40 |  |  |  |
| 128 (≈ 370 µM) | 64 (≈ 185 µM) | 64 (≈ 185 µM) | 64 (≈ 185 µM) | 8 ± 1 | 9 ± 1 (≈ 26 µM) | 64 (≈ 185 µM) |  |  | COc1ccc(C2CC(c3ccno3)=NN2C(N)=O)c(OC)c1OC (stereo not drawn) [Compound 41] | > 40 |  |  |  |
|  |  | 1 (≈ 3.27 µM) | 1 (≈ 3.27 µM) |  |  |  | 1 (≈ 3.27 µM) |  | OC(Cn1cncn1)(Cn1cncn1)c1ccc(F)cc1F [Fluconazole, reference compound] |  |  |  |  |
| 64 (≈ 247 µM) | 32 (≈ 123 µM) | 64 (≈ 247 µM) | 32 (≈ 123 µM) | 24 ± 1 | 22 ± 1 (≈ 84.9 µM) |  |  |  | COc1cccc(/C=C/C(=O)c2ccno2)c1OC [Compound 20] | > 40 |  |  |  |
| 4 (≈ 15.4 µM) | 2 (≈ 7.71 µM) | 8 (≈ 30.9 µM) | 16 (≈ 61.7 µM) | 18 ± 2 | 29 ± 2 (≈ 112 µM) |  |  |  | COc1ccc(/C=C/C(=O)c2ccno2)c(OC)c1 [Compound 21] | > 40 |  |  |  |
| 64 (≈ 202 µM) | 128 (≈ 405 µM) | 32 (≈ 101 µM) | 32 (≈ 101 µM) | 49 ± 1 | 4 ± 2 (≈ 12.6 µM) |  |  | 4 | COc1ccc(C2CC(c3ccno3)=NN2C(N)=O)cc1OC (stereo not drawn) [Compound 39] | > 40 |  |  |  |
| 16 (≈ 50.6 µM) | 32 (≈ 101 µM) | 2 (≈ 6.32 µM) | 2 (≈ 6.32 µM) | 28 ± 1 | 20 ± 2 (≈ 63.2 µM) |  | 2 (≈ 6.32 µM) |  | COc1cccc(OC)c1C1CC(c2ccno2)=NN1C(N)=O (stereo not drawn) [Compound 38] | > 40 |  |  |  |
| 4 (≈ 17.4 µM) | 4 (≈ 17.4 µM) | 8 (≈ 34.9 µM) | 16 (≈ 69.8 µM) | 32 ± 2 | 36 ± 1 (≈ 157 µM) |  |  |  | COc1ccccc1/C=C/C(=O)c1ccno1 [Compound 19] | > 40 |  |  |  |
| 16 (≈ 55.3 µM) | 16 (≈ 55.3 µM) | 32 (≈ 111 µM) | 32 (≈ 111 µM) | 7 ± 2 | 26 ± 3 (≈ 89.9 µM) |  |  |  | COc1cc(OC)c(OC)cc1/C=C/C(=O)c1ccno1 [Compound 27] | > 40 |  |  |  |
| 4 (≈ 14.4 µM) | 4 (≈ 14.4 µM) | 16 (≈ 57.7 µM) | 16 (≈ 57.7 µM) | 45 ± 2 | 5 ± 2 (≈ 18 µM) |  |  |  | COc1ccc(/C=C/C(=O)c2ccno2)c(F)c1OC [Compound 30] | > 40 |  |  |  |
| 8 (≈ 23.9 µM) | 8 (≈ 23.9 µM) | 0.5 (≈ 1.5 µM) | 1 (≈ 2.99 µM) | 55 ± 2 | 2 ± 1 (≈ 5.98 µM) | 8 (≈ 23.9 µM) |  | 2 | COc1ccc(C2CC(c3ccno3)=NN2C(N)=O)c(F)c1OC (stereo not drawn) [Compound 45] | > 40 | 8 |  |  |
| 16 (≈ 55.9 µM) | 16 (≈ 55.9 µM) | 4 (≈ 14 µM) | 4 (≈ 14 µM) | 44 ± 1 | 28 ± 1 (≈ 97.8 µM) |  | 4 (≈ 14 µM) |  | COc1ccc(C2CC(c3ccno3)=NN2C(N)=O)cc1 (stereo not drawn) [Compound 32] | > 40 |  |  |  |
| 4 (≈ 11.5 µM) | 4 (≈ 11.5 µM) | 2 (≈ 5.77 µM) | 2 (≈ 5.77 µM) | 6 ± 1 | 21 ± 2 (≈ 60.6 µM) | 4 (≈ 11.5 µM) | 2 (≈ 5.77 µM) |  | COc1cc(OC)c(C2CC(c3ccno3)=NN2C(N)=O)c(OC)c1 (stereo not drawn) [Compound 43] | > 40 |  | 4 | 8 |

Source: publication PMC7179112, “Antimicrobial, Antioxidant, and Anticancer Activities of Some Novel Isoxazole Ring Containing Chalcone and Dihydropyrazole Derivatives” (Molecules, 2020)
